Laboratory results as given in ChEMBL document CHEMBL3046562, “Pharmacological Effects of Imidacloprid and Its Related Compounds on the Nicotinic Acetyicholine Receptor with Its Ion Channel from the Torpedo Electric Organ” (J Pestic Sci, 1995).
Calls of active or inactive are those of the source. No cut-off for these calls is given here.

Key:
[1] = biological target: Acetylcholine receptor subunit alpha (Torpedo californica) (UniProt P02710); assay: Increase in [3H]PCP binding to nAChR in Torpedo nobiliana electric organs membranes by scintillation counting method; format: tissue-based; conditions: Electric organ
[2] = biological target: Acetylcholine receptor subunit alpha (Torpedo californica) (UniProt P02710); assay: Displacement of [3H]PCP from nAChR in Torpedo nobiliana electric organs membranes assessed as [3H]PCP binding level at 300 uM pre-treated with 0.5 uM alpha-bungarotoxin by scintillation counting method relative to untreated control; format: tissue-based; conditions: Electric organ
[3] = biological target: Acetylcholine receptor subunit alpha (Torpedo californica) (UniProt P02710); assay: Displacement of [3H]PCP from nAChR in Torpedo nobiliana electric organs membranes assessed as [3H]PCP binding level at 300 uM by scintillation counting method relative to untreated control; format: tissue-based; conditions: Electric organ
[4] = biological target: Acetylcholine receptor subunit alpha (Torpedo californica) (UniProt P02710); assay: Displacement of [3H]PCP from nAChR in Torpedo nobiliana electric organs membranes assessed as [3H]PCP binding level at 300 uM in presence of 100 uM carbachol by scintillation counting method relative to untreated control; format: tissue-based; conditions: Electric organ
[5] = biological target: Acetylcholine receptor subunit alpha (Torpedo californica) (UniProt P02710); assay: Displacement of [3H]alpha-BGT from nAChR in Torpedo nobiliana electric organs membranes at 1000 uM by scintillation counting method; format: tissue-based; conditions: Electric organ
[6] = Displacement of [3H]alpha-BGT from nAChR in Torpedo nobiliana electric organs membranes by scintillation counting method
[7] = biological target: Acetylcholine receptor subunit alpha (Torpedo californica) (UniProt P02710); assay: Displacement of [3H]PCP from nAChR in Torpedo nobiliana electric organs membranes at 300 uM by scintillation counting method; format: tissue-based; conditions: Electric organ
[8] = biological target: Acetylcholine receptor subunit alpha (Torpedo californica) (UniProt P02710); assay: Displacement of [3H]PCP from nAChR in Torpedo nobiliana electric organs membranes at 1000 uM by scintillation counting method; format: tissue-based; conditions: Electric organ
[9] = biological target: Acetylcholine receptor subunit alpha (Torpedo californica) (UniProt P02710); assay: Displacement of [3H]alpha-BGT from nAChR in Torpedo nobiliana electric organs membranes at 300 uM by scintillation counting method; format: tissue-based; conditions: Electric organ
[10] = biological target: Acetylcholine receptor subunit alpha (Torpedo californica) (UniProt P02710); assay: Displacement of [3H]PCP from nAChR in Torpedo nobiliana electric organs membranes assessed as [3H]PCP binding level at 500 uM in presence of 100 uM carbachol by scintillation counting method relative to untreated control; format: tissue-based; conditions: Electric organ
[11] = biological target: Acetylcholine receptor subunit alpha (Torpedo californica) (UniProt P02710); assay: Displacement of [3H]PCP from nAChR in Torpedo nobiliana electric organs membranes assessed as [3H]PCP binding level at 500 uM by scintillation counting method relative to untreated control; format: tissue-based; conditions: Electric organ
[12] = biological target: Acetylcholine receptor subunit alpha (Torpedo californica) (UniProt P02710); assay: Increase in [3H]PCP binding to nAChR in Torpedo nobiliana electric organs membranes at 1 to 3 uM by scintillation counting method; format: tissue-based; conditions: Electric organ
[13] = biological target: Acetylcholine receptor subunit alpha (Torpedo californica) (UniProt P02710); assay: Displacement of [3H]PCP from nAChR in Torpedo nobiliana electric organs membranes assessed as [3H]PCP binding level at 1000 uM pre-treated with 0.5 uM alpha-bungarotoxin by scintillation counting method relative to untreated control; format: tissue-based; conditions: Electric organ
[14] = biological target: Acetylcholine receptor subunit alpha (Torpedo californica) (UniProt P02710); assay: Displacement of [3H]PCP from nAChR in Torpedo nobiliana electric organs membranes assessed as [3H]PCP binding level at 1000 uM in presence of 100 uM carbachol by scintillation counting method relative to untreated control; format: tissue-based; conditions: Electric organ
[15] = biological target: Acetylcholine receptor subunit alpha (Torpedo californica) (UniProt P02710); assay: Displacement of [3H]PCP from nAChR in Torpedo nobiliana electric organs membranes assessed as [3H]PCP binding level at 1000 uM by scintillation counting method relative to untreated control; format: tissue-based; conditions: Electric organ

Sequence of Acetylcholine receptor subunit alpha (Torpedo californica) (P02710 whole entry): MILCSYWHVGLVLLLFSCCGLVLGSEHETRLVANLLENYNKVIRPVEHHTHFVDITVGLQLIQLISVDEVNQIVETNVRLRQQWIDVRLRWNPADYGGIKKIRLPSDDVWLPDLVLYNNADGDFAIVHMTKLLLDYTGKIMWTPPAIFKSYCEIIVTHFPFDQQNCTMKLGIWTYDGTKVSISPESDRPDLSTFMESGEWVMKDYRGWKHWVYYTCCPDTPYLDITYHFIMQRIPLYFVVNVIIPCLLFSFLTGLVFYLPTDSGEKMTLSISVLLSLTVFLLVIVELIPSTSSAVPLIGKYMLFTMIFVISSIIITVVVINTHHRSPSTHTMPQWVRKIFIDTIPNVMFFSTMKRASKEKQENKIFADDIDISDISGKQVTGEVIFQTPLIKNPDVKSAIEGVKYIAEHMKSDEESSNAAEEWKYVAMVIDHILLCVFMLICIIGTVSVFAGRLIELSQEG

C[N+]1(C)CCN(c2ccccc2)CC1
Activity [1]: Active

C/C(=N\C#N)N(C)Cc1ccc(Cl)nc1
Activity [2]: 104% | Activity [3]: 221% | Activity [4]: 93.3%

c1ccc(C2(N3CCCCC3)CCCCC2)cc1
inhibition [5]: 3.2%

C[N+](C)(C)CCOC(N)=O [CARBACHOL]
Activity [1]: Active | IC50 [6]: 7.64 µM

O=C1N(Cc2ccccc2)C2C[S+]3CCCC3C2N1Cc1ccccc1 (configuration not stated)
inhibition [7]: 5.93% | inhibition [8]: 59.5% | inhibition [9]: 5.7%

CN(C)C1CSSC1
Activity [1]: Active

O=c1cccc2n1C[C@@H]1CNC[C@H]2C1
Activity [1]: Active

c1cncc([C@@H]2CCCCN2)c1 [ANABASINE]
Activity [1]: Active | IC50 [6]: 193 µM

CN1CCC[C@H]1c1cccnc1 [NICOTINE]
Activity [1]: Active | IC50 [6]: 23.1 µM

CCN(Cc1ccc(Cl)nc1)/C(=C/[N+](=O)[O-])NC
Activity [10]: 607% | Activity [11]: 142% | inhibition [9]: 2.39%

O=[N+]([O-])/N=C1\NCCN1Cc1ccc(Cl)nc1 [IMIDACLOPRID]
Activity [2]: 108% | IC50 [6]: 1060 µM | Activity [3]: 287% | Activity [4]: 92.4%

CN(C)CCCN1c2ccccc2Sc2ccc(Cl)cc21
inhibition [5]: 7.15%

CN1[C@@H](CC(=O)c2ccccc2)CCC[C@H]1C[C@H](O)c1ccccc1
inhibition [5]: 0%

CNC1(c2ccccc2Cl)CCCCC1=O (configuration not stated)
inhibition [5]: 0.1%

O=[N+]([O-])/C=C1\NCCN1Cc1ccc(Cl)nc1
Activity [2]: 142% | Activity [3]: 461% | Activity [4]: 94.6%

COc1cc2c3cc1Oc1cc(ccc1O)C[C@@H]1c4c(cc(OC)c(O)c4Oc4ccc(cc4)C[C@@H]3N(C)CC2)CC[N+]1(C)C
Activity [1]: Active | inhibition [7]: 91.3% | Activity [12]: 160%

CNC1(C)C2CCC(C2)C1(C)C (configuration not stated)
inhibition [5]: 0%

CCC[C@H]1CCCCN1
Activity [1]: Active

CN1CCC[C@@H]1c1cccnc1
Activity [1]: Active

c1csc(C2(N3CCCCC3)CCCCC2)c1
inhibition [9]: 0.91%

CSCCN1CCN/C1=C\[N+](=O)[O-]
Activity [3]: 181% | Activity [4]: 830%

O=[N+]([O-])C=C1NCCCS1
Activity [13]: 112% | Activity [14]: 762% | IC50 [6]: 1590 µM | Activity [15]: 439%
